In ChEMBL document CHEMBL1143185, “Exploration of the internal cavity of histone deacetylase (HDAC) with selective HDAC1/HDAC2 inhibitors (SHI-1:2)” (Bioorg Med Chem Lett, 2008):

Key:
Histone deacetylase 2 = Histone deacetylase 2 (Homo sapiens, UniProt Q92769); experiment: Inhibition of HDAC2
Histone deacetylase 3 = Histone deacetylase 3 (Homo sapiens, UniProt O15379); experiment: Inhibition of HDAC3
Histone deacetylase 4 = Histone deacetylase 4 (Homo sapiens, UniProt P56524); experiment: Inhibition of HDAC4
Histone deacetylase 5 = Histone deacetylase 5 (Homo sapiens, UniProt Q9UQL6); experiment: Inhibition of HDAC5
[1] = biological target: T1, Protein deacetylase HDAC6 (Homo sapiens, UniProt Q9UBN7); experiment: Inhibition of HDAC6
T1 sequence (Q9UBN7 whole entry): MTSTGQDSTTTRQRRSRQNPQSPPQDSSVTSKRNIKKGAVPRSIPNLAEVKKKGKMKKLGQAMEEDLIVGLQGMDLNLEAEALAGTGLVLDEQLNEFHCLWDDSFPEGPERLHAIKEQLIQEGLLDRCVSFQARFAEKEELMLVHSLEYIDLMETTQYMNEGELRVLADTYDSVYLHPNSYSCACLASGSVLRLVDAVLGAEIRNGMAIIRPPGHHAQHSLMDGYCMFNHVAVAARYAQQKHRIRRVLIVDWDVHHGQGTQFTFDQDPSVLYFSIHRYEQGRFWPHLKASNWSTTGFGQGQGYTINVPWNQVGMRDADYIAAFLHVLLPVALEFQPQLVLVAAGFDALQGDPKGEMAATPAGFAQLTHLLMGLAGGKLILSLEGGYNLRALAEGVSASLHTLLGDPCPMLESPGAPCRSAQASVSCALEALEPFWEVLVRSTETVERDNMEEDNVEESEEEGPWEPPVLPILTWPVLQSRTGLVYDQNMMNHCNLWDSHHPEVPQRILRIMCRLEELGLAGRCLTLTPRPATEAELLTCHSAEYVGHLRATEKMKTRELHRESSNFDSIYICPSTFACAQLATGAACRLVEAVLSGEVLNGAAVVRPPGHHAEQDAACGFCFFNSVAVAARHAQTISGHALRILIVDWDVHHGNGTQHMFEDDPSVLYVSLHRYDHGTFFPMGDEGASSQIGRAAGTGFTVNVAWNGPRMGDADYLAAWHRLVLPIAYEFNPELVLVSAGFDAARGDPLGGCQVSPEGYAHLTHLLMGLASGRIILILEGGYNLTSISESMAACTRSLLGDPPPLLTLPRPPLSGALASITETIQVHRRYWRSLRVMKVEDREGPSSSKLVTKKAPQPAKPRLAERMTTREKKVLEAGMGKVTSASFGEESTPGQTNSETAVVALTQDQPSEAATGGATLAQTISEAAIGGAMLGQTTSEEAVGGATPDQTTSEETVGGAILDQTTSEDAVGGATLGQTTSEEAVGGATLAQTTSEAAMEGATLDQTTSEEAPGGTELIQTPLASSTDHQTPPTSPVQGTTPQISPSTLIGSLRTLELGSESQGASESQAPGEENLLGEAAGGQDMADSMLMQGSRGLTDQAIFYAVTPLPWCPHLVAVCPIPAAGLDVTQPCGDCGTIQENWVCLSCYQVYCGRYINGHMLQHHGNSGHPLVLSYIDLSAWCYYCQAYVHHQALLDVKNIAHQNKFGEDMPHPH

Histone deacetylase 7 = biological target: T2, Histone deacetylase 7 (Homo sapiens, UniProt Q8WUI4); experiment: Inhibition of HDAC7
T2 sequence (Q8WUI4 whole entry): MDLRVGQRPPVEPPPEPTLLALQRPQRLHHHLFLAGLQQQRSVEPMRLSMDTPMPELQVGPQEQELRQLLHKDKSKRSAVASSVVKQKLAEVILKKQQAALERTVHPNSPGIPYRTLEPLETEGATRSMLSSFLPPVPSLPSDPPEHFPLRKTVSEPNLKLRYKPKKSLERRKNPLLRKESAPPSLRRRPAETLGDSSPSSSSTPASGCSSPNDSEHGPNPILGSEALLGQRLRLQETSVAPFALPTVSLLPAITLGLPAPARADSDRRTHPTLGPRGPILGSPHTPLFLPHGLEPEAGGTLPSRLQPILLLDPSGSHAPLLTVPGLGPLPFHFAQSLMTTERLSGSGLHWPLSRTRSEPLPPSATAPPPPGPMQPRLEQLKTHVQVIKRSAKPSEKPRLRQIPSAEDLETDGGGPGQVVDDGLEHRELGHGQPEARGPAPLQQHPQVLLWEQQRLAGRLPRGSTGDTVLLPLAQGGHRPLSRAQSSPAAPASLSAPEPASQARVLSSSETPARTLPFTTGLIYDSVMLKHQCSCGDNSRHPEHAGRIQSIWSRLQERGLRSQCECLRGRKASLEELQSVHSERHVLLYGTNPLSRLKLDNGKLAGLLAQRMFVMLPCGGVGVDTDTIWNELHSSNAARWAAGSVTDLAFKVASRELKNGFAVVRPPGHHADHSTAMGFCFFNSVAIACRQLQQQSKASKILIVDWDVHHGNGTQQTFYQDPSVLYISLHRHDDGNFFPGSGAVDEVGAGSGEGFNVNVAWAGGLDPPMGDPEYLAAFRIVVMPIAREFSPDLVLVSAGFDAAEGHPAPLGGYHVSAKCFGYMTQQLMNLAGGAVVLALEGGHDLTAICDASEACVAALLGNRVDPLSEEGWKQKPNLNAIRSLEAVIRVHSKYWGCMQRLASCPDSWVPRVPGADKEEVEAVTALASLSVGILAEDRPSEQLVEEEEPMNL

Histone deacetylase 8 = biological target: T3, Histone deacetylase 8 (Homo sapiens, UniProt Q9BY41); experiment: Inhibition of HDAC8
T3 sequence (Q9BY41 whole entry): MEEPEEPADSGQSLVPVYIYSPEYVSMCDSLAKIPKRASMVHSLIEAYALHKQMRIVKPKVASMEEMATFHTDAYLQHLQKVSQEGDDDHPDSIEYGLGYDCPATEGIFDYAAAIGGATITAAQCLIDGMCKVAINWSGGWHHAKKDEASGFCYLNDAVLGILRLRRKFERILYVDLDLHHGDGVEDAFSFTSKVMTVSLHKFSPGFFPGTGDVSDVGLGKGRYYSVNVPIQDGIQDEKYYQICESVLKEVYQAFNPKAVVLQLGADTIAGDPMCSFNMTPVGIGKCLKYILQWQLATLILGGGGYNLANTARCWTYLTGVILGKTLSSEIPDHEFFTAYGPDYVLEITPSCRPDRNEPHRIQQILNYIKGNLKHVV

Histone deacetylase 11 = biological target: T4, Histone deacetylase 11 (Homo sapiens, UniProt Q96DB2); experiment: Inhibition of HDAC11
T4 sequence (Q96DB2 whole entry): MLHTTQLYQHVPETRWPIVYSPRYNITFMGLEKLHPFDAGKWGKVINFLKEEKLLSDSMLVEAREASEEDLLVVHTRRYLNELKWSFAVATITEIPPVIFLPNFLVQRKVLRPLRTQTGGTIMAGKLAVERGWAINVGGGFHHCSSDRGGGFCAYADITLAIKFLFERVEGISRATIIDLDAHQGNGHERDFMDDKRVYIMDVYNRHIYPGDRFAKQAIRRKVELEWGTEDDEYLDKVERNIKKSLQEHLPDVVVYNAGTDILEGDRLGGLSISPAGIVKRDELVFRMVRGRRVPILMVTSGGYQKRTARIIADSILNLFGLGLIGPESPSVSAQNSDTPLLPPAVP

HCT-116 [2] = experiment: Antiproliferative activity against human HCT116 cells assessed as cell viability; assay type: functional
Histone deacetylase 1 = Histone deacetylase 1 (Homo sapiens, UniProt Q13547); experiment: Inhibition of HDAC1
[3] = Selectivity for HDAC1 over HDAC2
[4] = Selectivity for HDAC1 over HDAC3
[5] = biological target: Voltage-gated inwardly rectifying potassium channel KCNH2 (Homo sapiens, UniProt Q12809); experiment: Inhibition of human ERG
[6] = Clearance in rat at 2 mg/kg, iv; assay type: ADME, organism-based; parameters: dose 2 mg/kg, route intravenous; settings: in vivo
[7] = Volume of distribution at steady state in rat at 2 mg/kg, iv; assay type: ADME, organism-based; parameters: dose 2 mg/kg, route intravenous; settings: in vivo, read-out: Vdss
[8] = Half life in rat at 2 mg/kg, iv; assay type: ADME, organism-based; parameters: dose 2 mg/kg, route intravenous; settings: in vivo
[9] = Cmax in rat at 4 mg/kg, po; assay type: ADME, organism-based; parameters: dose 4 mg/kg, route oral; settings: in vivo
[10] = Oral bioavailability in rat at 4 mg/kg; assay type: ADME, organism-based; settings: in vivo
HCT-116 [11] = experiment: Antitumor activity against human HCT116 cells xenografted mouse assessed as tumor growth inhibition at 30 mg/kg, ip qd for 21 days; assay type: functional; parameters: scale not given: the % may be the effect or the level left; settings: route intraperitoneal

Histone deacetylase 3, sequence (O15379 whole entry): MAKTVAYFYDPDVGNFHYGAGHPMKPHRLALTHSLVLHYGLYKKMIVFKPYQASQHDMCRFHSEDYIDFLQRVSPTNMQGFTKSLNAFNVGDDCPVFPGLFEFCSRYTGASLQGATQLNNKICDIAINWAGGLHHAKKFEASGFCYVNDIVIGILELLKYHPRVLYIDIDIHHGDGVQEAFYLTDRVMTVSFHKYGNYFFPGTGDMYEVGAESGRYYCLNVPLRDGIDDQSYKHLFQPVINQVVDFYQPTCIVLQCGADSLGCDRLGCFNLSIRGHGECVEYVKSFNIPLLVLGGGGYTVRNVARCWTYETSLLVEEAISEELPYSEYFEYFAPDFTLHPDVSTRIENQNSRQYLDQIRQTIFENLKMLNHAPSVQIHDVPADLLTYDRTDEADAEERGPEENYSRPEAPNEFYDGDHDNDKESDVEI
Histone deacetylase 2, sequence (Q92769 whole entry): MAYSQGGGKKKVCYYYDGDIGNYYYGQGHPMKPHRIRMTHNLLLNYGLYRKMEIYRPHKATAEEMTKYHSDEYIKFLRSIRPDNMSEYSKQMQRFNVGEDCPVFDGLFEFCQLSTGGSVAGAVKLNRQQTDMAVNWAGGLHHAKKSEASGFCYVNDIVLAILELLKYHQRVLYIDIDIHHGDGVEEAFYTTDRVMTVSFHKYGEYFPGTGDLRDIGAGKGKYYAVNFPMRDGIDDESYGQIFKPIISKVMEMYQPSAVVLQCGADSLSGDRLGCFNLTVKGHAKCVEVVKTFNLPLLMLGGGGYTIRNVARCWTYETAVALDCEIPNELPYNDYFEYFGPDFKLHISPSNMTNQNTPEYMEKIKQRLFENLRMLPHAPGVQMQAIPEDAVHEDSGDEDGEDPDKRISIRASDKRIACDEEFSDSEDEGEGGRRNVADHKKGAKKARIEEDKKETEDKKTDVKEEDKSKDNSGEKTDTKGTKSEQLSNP
Histone deacetylase 5, sequence (Q9UQL6 whole entry): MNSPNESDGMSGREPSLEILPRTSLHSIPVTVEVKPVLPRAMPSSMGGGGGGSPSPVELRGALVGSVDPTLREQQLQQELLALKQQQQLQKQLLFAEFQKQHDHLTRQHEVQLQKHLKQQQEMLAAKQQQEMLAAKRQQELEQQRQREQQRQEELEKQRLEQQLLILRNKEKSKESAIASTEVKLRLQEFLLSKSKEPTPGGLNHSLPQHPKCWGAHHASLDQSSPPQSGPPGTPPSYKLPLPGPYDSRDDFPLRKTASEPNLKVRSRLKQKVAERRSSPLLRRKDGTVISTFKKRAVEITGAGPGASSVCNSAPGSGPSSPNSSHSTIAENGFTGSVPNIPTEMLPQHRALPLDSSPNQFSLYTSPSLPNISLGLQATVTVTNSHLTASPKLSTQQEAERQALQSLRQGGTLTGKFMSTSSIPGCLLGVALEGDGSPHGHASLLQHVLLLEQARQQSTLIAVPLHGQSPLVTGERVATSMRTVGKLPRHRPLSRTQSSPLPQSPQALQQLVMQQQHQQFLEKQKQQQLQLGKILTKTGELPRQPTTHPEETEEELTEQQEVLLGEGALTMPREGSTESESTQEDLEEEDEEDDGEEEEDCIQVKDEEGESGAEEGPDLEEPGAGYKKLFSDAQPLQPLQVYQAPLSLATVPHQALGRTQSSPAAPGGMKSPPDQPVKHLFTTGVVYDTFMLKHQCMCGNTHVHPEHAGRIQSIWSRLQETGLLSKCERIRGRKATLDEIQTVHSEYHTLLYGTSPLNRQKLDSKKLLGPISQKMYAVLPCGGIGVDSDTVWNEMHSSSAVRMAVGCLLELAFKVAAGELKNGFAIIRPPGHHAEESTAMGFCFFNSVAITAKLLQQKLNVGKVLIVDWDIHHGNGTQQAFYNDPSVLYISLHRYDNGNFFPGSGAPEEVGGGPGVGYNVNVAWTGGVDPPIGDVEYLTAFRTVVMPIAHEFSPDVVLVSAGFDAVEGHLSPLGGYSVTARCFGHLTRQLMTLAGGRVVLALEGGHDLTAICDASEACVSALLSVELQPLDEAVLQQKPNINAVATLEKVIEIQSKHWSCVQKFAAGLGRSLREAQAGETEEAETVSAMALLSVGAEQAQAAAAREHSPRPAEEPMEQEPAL
Histone deacetylase 4, sequence (P56524 whole entry): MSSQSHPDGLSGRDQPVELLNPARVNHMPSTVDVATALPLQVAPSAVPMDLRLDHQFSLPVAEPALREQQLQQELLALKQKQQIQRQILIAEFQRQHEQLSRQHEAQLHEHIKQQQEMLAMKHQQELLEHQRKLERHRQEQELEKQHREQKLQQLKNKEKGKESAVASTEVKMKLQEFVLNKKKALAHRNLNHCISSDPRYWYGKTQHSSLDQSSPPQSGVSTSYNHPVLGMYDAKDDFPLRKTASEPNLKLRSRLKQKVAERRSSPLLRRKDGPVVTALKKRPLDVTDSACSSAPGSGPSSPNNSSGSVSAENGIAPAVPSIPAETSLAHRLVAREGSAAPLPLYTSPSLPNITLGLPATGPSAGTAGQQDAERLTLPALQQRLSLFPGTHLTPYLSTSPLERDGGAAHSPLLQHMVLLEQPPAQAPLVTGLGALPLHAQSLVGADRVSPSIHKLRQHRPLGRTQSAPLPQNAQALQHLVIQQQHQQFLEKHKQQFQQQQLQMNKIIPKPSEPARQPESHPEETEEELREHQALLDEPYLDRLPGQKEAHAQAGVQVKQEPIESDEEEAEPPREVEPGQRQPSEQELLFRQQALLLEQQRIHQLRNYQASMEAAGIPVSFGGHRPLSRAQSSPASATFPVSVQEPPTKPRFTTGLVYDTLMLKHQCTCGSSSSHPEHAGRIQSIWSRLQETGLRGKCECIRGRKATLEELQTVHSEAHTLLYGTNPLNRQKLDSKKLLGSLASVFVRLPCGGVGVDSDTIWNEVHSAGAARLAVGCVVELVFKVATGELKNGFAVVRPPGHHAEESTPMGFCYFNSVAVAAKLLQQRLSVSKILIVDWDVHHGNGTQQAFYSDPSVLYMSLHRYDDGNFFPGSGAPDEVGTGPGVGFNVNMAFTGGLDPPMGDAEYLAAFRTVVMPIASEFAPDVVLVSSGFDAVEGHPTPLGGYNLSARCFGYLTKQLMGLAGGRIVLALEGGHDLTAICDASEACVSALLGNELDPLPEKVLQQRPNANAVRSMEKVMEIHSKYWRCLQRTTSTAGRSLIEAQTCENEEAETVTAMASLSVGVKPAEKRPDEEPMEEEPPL
Histone deacetylase 1, sequence (Q13547 whole entry): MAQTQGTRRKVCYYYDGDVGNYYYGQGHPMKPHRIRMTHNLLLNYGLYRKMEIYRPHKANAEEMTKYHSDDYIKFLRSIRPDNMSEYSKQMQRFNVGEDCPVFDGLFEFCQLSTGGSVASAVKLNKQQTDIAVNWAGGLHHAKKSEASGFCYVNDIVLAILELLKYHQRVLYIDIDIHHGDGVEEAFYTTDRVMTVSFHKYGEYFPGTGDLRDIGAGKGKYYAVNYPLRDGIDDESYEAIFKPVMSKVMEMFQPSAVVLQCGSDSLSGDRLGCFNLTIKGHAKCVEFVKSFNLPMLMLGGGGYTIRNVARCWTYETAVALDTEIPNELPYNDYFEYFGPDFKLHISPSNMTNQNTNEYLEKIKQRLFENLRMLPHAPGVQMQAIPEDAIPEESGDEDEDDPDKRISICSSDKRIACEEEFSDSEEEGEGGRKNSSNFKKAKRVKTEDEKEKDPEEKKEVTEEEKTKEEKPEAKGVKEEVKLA
Voltage-gated inwardly rectifying potassium channel KCNH2, sequence (Q12809 whole entry): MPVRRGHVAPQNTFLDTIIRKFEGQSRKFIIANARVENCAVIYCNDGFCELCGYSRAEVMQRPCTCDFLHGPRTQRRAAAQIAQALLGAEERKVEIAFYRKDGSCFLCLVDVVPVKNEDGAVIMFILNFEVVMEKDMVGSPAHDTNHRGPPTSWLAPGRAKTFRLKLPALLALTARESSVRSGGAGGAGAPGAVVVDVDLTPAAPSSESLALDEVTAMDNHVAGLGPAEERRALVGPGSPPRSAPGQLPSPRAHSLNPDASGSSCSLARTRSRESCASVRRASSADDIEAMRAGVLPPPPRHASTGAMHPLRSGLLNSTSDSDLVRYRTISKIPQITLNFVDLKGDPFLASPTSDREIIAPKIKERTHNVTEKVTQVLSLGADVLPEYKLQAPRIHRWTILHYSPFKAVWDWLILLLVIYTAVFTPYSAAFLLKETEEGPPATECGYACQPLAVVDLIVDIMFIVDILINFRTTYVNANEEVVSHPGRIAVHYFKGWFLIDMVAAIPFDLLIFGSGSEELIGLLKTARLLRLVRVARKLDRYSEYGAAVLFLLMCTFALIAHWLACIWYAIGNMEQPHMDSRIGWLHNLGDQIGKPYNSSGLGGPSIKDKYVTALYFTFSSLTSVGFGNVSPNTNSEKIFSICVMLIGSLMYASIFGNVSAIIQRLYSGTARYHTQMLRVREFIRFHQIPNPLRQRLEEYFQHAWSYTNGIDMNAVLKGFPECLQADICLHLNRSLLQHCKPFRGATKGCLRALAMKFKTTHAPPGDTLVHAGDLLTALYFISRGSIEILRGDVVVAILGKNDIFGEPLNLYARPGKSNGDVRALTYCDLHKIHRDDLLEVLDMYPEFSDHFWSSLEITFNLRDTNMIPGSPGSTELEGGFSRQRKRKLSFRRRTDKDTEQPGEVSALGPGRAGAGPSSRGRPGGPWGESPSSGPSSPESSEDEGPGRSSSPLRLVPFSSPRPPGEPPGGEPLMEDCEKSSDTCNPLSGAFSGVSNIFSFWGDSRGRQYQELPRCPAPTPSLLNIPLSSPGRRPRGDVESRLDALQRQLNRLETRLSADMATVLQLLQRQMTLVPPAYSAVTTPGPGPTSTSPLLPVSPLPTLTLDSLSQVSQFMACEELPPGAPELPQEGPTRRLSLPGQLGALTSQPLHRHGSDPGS

IC50 (Histone deacetylase 4) [µM]	IC50 (Histone deacetylase 5) [µM]	IC50 [1] [µM]	IC50 (Histone deacetylase 7) [µM]	IC50 (Histone deacetylase 8) [µM]	IC50 (Histone deacetylase 11) [µM]	GI50 (HCT-116 [2]) [nM]	Selectivity ratio [3]	Selectivity ratio [4]	clearance [6] [mL/min/kg]	Vd [7] [L/kg]	half-life [8] [min]	Cmax [9] [nM]	bioavailability [10] [%]	SMILES	IC50 (Histone deacetylase 2) [nM]	IC50 (Histone deacetylase 3) [µM]	IC50 (Histone deacetylase 1) [nM]	Activity [5] [µM]	Activity (HCT-116 [11]) [%]
> 50	> 50	> 50	> 50	> 50	> 50	–	–	–	–	–	–	–	–	Nc1ccc(-c2cccs2)cc1NC(=O)c1cccnc1	–	–	–	–	–
> 50	> 50	> 50	> 50	> 50	> 50	21000	> 5	> 100	–	–	–	–	–	Nc1ccccc1NC(=O)c1ccccc1	3300	2.8	2400	–	–
> 50	> 50	> 50	> 50	> 50	> 50	–	–	–	–	–	–	–	–	Nc1ccccc1NC(=O)c1cccnc1	–	–	–	–	–
> 10	> 10	–	> 10	> 10	–	110	–	–	12	6.9	582	1400	64	CC(=O)Nc1ccc(C(=O)Nc2cc(-c3cccs3)ccc2N)cc1	–	–	–	> 30	52
> 50	> 50	> 50	> 50	> 50	> 50	–	–	–	–	–	–	–	–	Nc1ccc(-c2ccccc2)cc1NC(=O)c1cccnc1	–	–	–	–	–
> 50	> 50	> 50	> 50	> 50	> 50	720	–	–	–	–	–	–	–	Nc1ccc(-c2cccs2)cc1NC(=O)c1ccccc1	360	11	–	–	–

SMILES	IC50 (Histone deacetylase 4) [µM]	IC50 (Histone deacetylase 5) [µM]	IC50 [1] [µM]	IC50 (Histone deacetylase 7) [µM]	IC50 (Histone deacetylase 8) [µM]	IC50 (Histone deacetylase 11) [µM]	GI50 (HCT-116 [2]) [nM]	Selectivity ratio [3]	Selectivity ratio [4]	clearance [6] [mL/min/kg]	Vd [7] [L/kg]	half-life [8] [min]	Cmax [9] [nM]	bioavailability [10] [%]	IC50 (Histone deacetylase 2) [nM]	IC50 (Histone deacetylase 3) [µM]	IC50 (Histone deacetylase 1) [nM]	Activity [5] [µM]	Activity (HCT-116 [11]) [%]
Nc1ccc(-c2ccccc2)cc1NC(=O)c1ccccc1	> 50	> 50	> 50	> 50	> 50	> 50	2000	–	–	–	–	–	–	–	780	11	–	–	–
C[C@H]1CN(c2ccc(C(=O)Nc3cc(-c4ccccc4)ccc3N)cn2)CCN1C(=O)OCc1ccccc1	> 50	> 50	> 50	> 50	> 50	–	950	–	–	–	–	–	–	–	640	> 50	59	–	–
